Experiment: molar heat capacity at saturation pressure
Conditions: Large sample (1 g) DSC

C1C2CC3CC1CC(C14CC5CC(CC(C5)C1)C4)(C2)C3 [1,1'-biadamantane]
Conditions	molar heat capacity [J/K/mol]
368.9 K, Crystal 2	422.5
372.5 K, Crystal 2	428.1
376.1 K, Crystal 2	435.3
379.7 K, Crystal 2	439.7
383.3 K, Crystal 2	443.1
386.9 K, Crystal 2	448.3
390.4 K, Crystal 2	452.1
394 K, Crystal 2	456.9
397.6 K, Crystal 2	460.5
401.2 K, Crystal 2	466.4
404.8 K, Crystal 2	471.7
408.4 K, Crystal 2	471.9
412 K, Crystal 2	478.1
415.6 K, Crystal 2	481.4
419.2 K, Crystal 2	490.8
422.8 K, Crystal 2	493.1
426.4 K, Crystal 2	496.1
430 K, Crystal 2	501.3
433.6 K, Crystal 2	507.8
437.1 K, Crystal 2	513
440.7 K, Crystal 2	519.9
444.3 K, Crystal 2	525
447.9 K, Crystal 2	529.9
451.5 K, Crystal 2	537.9
455.1 K, Crystal 2	544.8
458.7 K, Crystal 2	549.6
462.3 K, Crystal 2	556.8
465.9 K, Crystal 2	563.6
469.5 K, Crystal 2	572.6
473 K, Crystal 2	579.1
476.6 K, Crystal 2	584.1
480.2 K, Crystal 2	587.8
483.8 K, Crystal 2	600.3
487.4 K, Crystal 2	611.9
491 K, Crystal 2	607.2
494.6 K, Crystal 2	617.9
495.5 K, Crystal 2	621.1
496.4 K, Crystal 2	621.4
497.3 K, Crystal 2	621.7
498.1 K, Crystal 2	626.7
499 K, Crystal 2	629.7
499.9 K, Crystal 2	632.7
500.8 K, Crystal 2	635.2
501.7 K, Crystal 2	637.1
502.6 K, Crystal 2	636.9
503.5 K, Crystal 2	639
504.4 K, Crystal 2	644.5
505.3 K, Crystal 2	647.9
506.2 K, Crystal 2	659.8
507 K, Crystal 2	693.8
507.9 K, Crystal 2	741.7
508.7 K, Crystal 2	773.6
509.6 K, Crystal 1	792.3
510.6 K, Crystal 1	763.7
511.5 K, Crystal 1	724.5
512.4 K, Crystal 1	700.9
513.3 K, Crystal 1	684.2
514.2 K, Crystal 1	674.9
515.2 K, Crystal 1	668.9
516.1 K, Crystal 1	662.2
517 K, Crystal 1	655.5
517.9 K, Crystal 1	658.8
518.8 K, Crystal 1	647.2
519.7 K, Crystal 1	637.1
520.6 K, Crystal 1	640.5
522.4 K, Crystal 1	641.1
523.3 K, Crystal 1	647.5
524.2 K, Crystal 1	653.8
525.1 K, Crystal 1	653.9
526.8 K, Crystal 1	660.2
527.7 K, Crystal 1	653
528.6 K, Crystal 1	663.2
529.5 K, Crystal 1	664.4
530.4 K, Crystal 1	664.4
531.3 K, Crystal 1	663.3
532.2 K, Crystal 1	664.8
533.1 K, Crystal 1	667.8
534 K, Crystal 1	666.7
534.9 K, Crystal 1	674.5
535.8 K, Crystal 1	671
536.7 K, Crystal 1	671.7
537.6 K, Crystal 1	675
538.5 K, Crystal 1	681.1
539.4 K, Crystal 1	676.6
540.3 K, Crystal 1	677
543.1 K, Crystal 1	681.3
544.9 K, Crystal 1	692.5
546.7 K, Crystal 1	693.7
548.5 K, Crystal 1	702.1
550.3 K, Crystal 1	709.8
552.1 K, Crystal 1	724.2
553.9 K, Crystal 1	741
555.7 K, Crystal 1	752.9
557.4 K, Crystal 1	744.3
559.2 K, Crystal 1	772.6
561 K, Crystal 1	802.7
